We go through 20 compounds from ChEMBL document CHEMBL1137573, “Cyclooxygenase-2 inhibitors. 1,5-diarylpyrrol-3-acetic esters with enhanced inhibitory activity toward cyclooxygenase-2 and improved cyclooxygenase-2/cyclooxygenase-1 selectivity” (J Med Chem, 2007).

For experiment [1], the species on record is Mus musculus. Kind of experiment: Selectivity ratio of IC50 for mouse COX1 to IC50 for mouse COX2.
Experiment [2] deals with T1, Prostaglandin G/H synthase 1 (Mus musculus, UniProt P22437).
T1 sequence (P22437 whole entry): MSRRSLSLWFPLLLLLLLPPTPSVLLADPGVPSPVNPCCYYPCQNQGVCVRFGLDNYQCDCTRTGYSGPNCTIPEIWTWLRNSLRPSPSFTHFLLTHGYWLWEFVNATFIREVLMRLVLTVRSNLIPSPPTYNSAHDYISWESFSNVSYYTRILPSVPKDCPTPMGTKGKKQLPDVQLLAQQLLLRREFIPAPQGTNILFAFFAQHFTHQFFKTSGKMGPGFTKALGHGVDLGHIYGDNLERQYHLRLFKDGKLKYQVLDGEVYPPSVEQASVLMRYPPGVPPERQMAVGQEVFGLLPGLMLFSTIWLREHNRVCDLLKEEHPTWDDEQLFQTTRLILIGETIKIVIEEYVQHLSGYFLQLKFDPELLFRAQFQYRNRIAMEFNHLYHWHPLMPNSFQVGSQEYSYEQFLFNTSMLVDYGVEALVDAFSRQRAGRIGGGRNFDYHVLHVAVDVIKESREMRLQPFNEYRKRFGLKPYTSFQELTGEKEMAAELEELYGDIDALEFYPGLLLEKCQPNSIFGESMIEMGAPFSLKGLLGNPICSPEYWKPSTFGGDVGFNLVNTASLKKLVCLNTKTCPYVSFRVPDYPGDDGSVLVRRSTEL
Nature of the experiment: Inhibition of COX1 in mouse J774 cells assessed as arachidonic acid-induced PGE2 levels by radio immunoassay. The format is cell-based.

For experiment [3], the target named is T2, Prostaglandin G/H synthase 2 (Mus musculus, UniProt Q05769).
T2 sequence (Q05769 whole entry): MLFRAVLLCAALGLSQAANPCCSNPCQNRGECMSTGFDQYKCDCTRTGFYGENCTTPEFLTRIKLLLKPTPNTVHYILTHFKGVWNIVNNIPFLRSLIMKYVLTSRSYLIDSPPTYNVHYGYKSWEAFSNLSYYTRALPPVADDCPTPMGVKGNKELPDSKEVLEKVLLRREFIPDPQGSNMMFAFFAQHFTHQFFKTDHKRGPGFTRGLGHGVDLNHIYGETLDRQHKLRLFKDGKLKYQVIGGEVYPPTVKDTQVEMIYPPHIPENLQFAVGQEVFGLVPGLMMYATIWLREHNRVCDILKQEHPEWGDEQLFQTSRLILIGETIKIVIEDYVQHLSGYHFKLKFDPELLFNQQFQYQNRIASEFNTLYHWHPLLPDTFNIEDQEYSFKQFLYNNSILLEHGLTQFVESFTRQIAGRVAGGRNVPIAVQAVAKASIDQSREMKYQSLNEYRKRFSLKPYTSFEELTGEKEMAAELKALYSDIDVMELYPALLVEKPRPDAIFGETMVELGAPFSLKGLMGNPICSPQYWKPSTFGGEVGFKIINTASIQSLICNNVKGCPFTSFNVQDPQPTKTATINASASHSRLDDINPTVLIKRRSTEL
Description: Inhibition of COX2 in LPS-stimulated J774 cells assessed as inhibition of PGE2 levels by radioimmunoassay

For experiment [4], the system named is Rattus norvegicus. Kind of experiment: Antiinflammatory activity against carrageenan-induced hyperalgesia in rat assessed as paw pressure in rat at 20 mg/kg, po after 30 mins. The format is functional.
The target in experiment [5] is Prostaglandin G/H synthase 1 (Homo sapiens, UniProt P23219). Nature of the experiment: Inhibition of COX1 in human whole blood assessed as TXB2 production. The format is tissue-based.
Experiment [6] deals with Rattus norvegicus. Kind of experiment: Antiinflammatory activity against carrageenan-induced hyperalgesia in rat assessed as paw pressure in rat at 20 mg/kg, po after 120 mins. The format is functional.
Experiment [7] concerns the target T3, Prostaglandin G/H synthase 2 (Homo sapiens, UniProt P35354).
T3 sequence (P35354 whole entry): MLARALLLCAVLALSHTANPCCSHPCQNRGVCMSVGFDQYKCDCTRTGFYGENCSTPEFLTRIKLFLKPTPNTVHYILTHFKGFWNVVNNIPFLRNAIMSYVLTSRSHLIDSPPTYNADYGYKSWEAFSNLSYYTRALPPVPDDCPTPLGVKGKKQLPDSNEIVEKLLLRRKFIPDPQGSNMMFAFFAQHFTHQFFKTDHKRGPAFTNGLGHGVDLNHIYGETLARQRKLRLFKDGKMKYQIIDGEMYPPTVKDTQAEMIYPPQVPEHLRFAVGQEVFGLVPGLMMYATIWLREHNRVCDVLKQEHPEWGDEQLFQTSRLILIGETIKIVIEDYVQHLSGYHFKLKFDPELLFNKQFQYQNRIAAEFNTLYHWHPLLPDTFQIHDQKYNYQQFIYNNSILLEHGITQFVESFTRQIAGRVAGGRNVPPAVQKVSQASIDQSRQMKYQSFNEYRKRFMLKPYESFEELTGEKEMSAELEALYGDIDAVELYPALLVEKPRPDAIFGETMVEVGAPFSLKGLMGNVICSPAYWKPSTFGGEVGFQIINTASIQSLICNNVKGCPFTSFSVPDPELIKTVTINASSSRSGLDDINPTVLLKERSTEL
Kind of experiment: Inhibition of COX2 in LPS-induced monocyte assessed as PGE2 production in human whole blood.

Experiment [8] deals with Rattus norvegicus. Nature of the experiment: Antiinflammatory activity against carrageenan-induced paw edema in rat at 20 mg/kg, po. The format is functional. For orientation: In the carrageenan paw model, swelling and tenderness develop within hours.
Experiment [9] has as its system Rattus norvegicus. Nature of the experiment: Antiinflammatory activity against carrageenan-induced hyperalgesia in rat assessed as paw pressure in rat at 20 mg/kg, po after 60 mins. The format is functional.
The test system of experiment [10] is Mus musculus. Nature of the experiment: Analgesic activity against acetic acid induced abdominal constriction in Swiss Albino mouse assessed as number of writhings at 10 mg/kg, po after 10 mins. The format is functional, Abdomen. In general terms: Writhing tests count abdominal constrictions after an irritant is injected.
Experiment [11] deals with Mus musculus. Kind of experiment: Analgesic activity against acetic acid induced abdominal constriction in Swiss Albino mouse assessed as number of writhings at 20 mg/kg, po after 10 mins. The format is functional, Abdomen.

By IC50 is commonly meant the concentration that gives 50% inhibition.

Chain of Prostaglandin G/H synthase 1 (Homo sapiens, UniProt P23219) (P23219 whole entry): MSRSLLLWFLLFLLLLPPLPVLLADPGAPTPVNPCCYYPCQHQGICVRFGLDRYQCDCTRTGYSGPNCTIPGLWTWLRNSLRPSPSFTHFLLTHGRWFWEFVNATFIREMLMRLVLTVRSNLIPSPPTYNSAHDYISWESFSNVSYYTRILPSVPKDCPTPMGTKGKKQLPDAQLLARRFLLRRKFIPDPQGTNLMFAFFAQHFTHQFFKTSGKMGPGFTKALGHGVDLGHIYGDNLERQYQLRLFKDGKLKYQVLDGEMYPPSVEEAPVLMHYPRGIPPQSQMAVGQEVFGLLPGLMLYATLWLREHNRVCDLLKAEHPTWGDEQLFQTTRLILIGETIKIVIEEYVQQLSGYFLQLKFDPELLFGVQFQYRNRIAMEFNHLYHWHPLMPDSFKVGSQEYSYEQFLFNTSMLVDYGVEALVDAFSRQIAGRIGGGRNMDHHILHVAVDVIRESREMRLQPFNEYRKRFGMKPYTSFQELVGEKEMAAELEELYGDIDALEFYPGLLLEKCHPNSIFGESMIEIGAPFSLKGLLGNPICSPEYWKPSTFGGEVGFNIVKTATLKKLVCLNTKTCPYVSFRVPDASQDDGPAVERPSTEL

As to `CCOC(=O)C(=O)c1cc(-c2ccc(S(C)(=O)=O)cc2)n(-c2ccc(F)cc2)c1C`, the Ratio IC50 in the experiment filed under Mus musculus [1] is over 9. Further, the results for the IC50 in [2] and in [3] were over 100 µM and 11 µM, respectively.
As for `CCOC(=O)Cc1cc(-c2ccc(S(C)(=O)=O)cc2)n(-c2ccc(F)c(F)c2)c1C`, in the experiment listed under Mus musculus [1], the Ratio IC50 was over 5000. For the same compound, the 50% inhibitory concentration (IC50) in experiment [2] is over 100 µM.
In the case of `CCOC(=O)C(=O)c1cc(-c2ccc(C)cc2)n(-c2ccc(S(C)(=O)=O)cc2)c1C`, the IC50 in [2] is over 100 µM.
Same read-out and setting: for `CCOC(=O)C(=O)c1cc(-c2ccc(OC)cc2)n(-c2ccc(S(C)(=O)=O)cc2)c1C` the value was over 100 µM.
Consider `CCOC(=O)Cc1cc(-c2ccc(S(C)(=O)=O)cc2)n(-c2ccc(OC)cc2)c1C`, for which the Ratio IC50 in the experiment listed under Mus musculus [1] was over 4000. In addition, the results for the half-maximal inhibitory concentration (IC50) in experiment [2] and in experiment [3] were over 100 µM and 0.026 µM, respectively.
As to `CCOC(=O)C(=O)c1cc(-c2ccc(F)c(F)c2)n(-c2ccc(S(C)(=O)=O)cc2)c1C`, the IC50 in experiment [2] is over 100 µM.
Take `CCOC(=O)C(=O)c1cc(-c2ccc(S(C)(=O)=O)cc2)n(-c2ccc(OC)cc2)c1C`: the Ratio IC50 in the experiment filed under Mus musculus [1] is over 100. Moreover, the half-maximal inhibitory concentration (IC50) in experiment [2] was over 100 µM; in experiment [3], 0.94 µM.
Take `CCOC(=O)Cc1cc(-c2ccc(OC)cc2)n(-c2ccc(S(C)(=O)=O)cc2)c1C`: the Ratio IC50 in the experiment listed under Mus musculus [1] was over 200. Also, the IC50 in experiment [2] is over 100 µM; in experiment [3] it was 0.55 µM.
On to `CCOC(=O)C(=O)c1cc(-c2ccc(S(C)(=O)=O)cc2)n(-c2ccc(F)c(F)c2)c1C`, for which the Ratio IC50 in the experiment listed under Mus musculus [1] was over 12. The half-maximal inhibitory concentration (IC50) in [2] was over 100 µM; in [3], 8.4 µM.
For `CCOC(=O)Cc1cc(-c2ccc(C)cc2)n(-c2ccc(S(C)(=O)=O)cc2)c1C` the same measures were over 50, over 100 µM and 1.96 µM.
In the same order, the values of `CCOC(=O)Cc1cc(-c2ccc(F)c(F)c2)n(-c2ccc(S(C)(=O)=O)cc2)c1C` are over 19, over 100 µM and 5.4 µM.
Turning to `CCOC(=O)Cc1cc(-c2ccc(F)cc2)n(-c2ccc(S(C)(=O)=O)cc2)c1C`, in the experiment listed under Mus musculus [1], the Ratio IC50 is over 250. Also, the half-maximal inhibitory concentration (IC50) in [2] is over 100 µM; in experiment [3], 0.4 µM.
Consider `CCOC(=O)C(=O)c1cc(-c2ccccc2)n(-c2ccc(S(C)(=O)=O)cc2)c1C`, for which the 50% inhibitory concentration (IC50) in [2] is over 100 µM.
For `CCOC(=O)Cc1cc(-c2ccc(S(C)(=O)=O)cc2)n(-c2cccc(F)c2)c1C`, the Activity in the experiment with Rattus norvegicus [4] was determined as 55.2 g; in the experiment with Rattus norvegicus [6], 43.4 g; in the experiment on Rattus norvegicus [8], 95.5%; with Rattus norvegicus [9], 49.8 g; in the experiment with Mus musculus [10] it was 28.9; with Mus musculus [11], 15.7. The IC50 in experiment [5] was 20.4 µM; in experiment [7], 2.1 µM; in experiment [2], over 100 µM. The Ratio IC50 in the experiment listed under Mus musculus [1] was over 10000.
Turning to `CCOC(=O)C(=O)c1cc(-c2ccc(S(C)(=O)=O)cc2)n(-c2cccc(F)c2)c1C`, the Ratio IC50 in the experiment filed under Mus musculus [1] is over 100. Besides, the half-inhibitory concentration (IC50) was over 100 µM in experiment [2] and 0.9 µM in experiment [3].
As for `CCOC(=O)Cc1cc(-c2ccc(C(F)(F)F)cc2)n(-c2ccc(S(C)(=O)=O)cc2)c1C`, the 50% inhibitory concentration (IC50) in experiment [2] was over 100 µM.
Take `CCOC(=O)Cc1cc(-c2ccccc2)n(-c2ccc(S(C)(=O)=O)cc2)c1C`: in experiment [2], the IC50 was over 100 µM.
The same measure, in the same setting: as for `CCOC(=O)C(=O)c1cc(-c2ccc(C(F)(F)F)cc2)n(-c2ccc(S(C)(=O)=O)cc2)c1C`, the figure is over 100 µM; as for `CCOC(=O)C(=O)c1cc(-c2ccc(F)cc2)n(-c2ccc(S(C)(=O)=O)cc2)c1C`, over 100 µM.
Consider `CCOC(=O)Cc1cc(-c2ccc(S(C)(=O)=O)cc2)n(-c2ccc(F)cc2)c1C`, for which the Ratio IC50 in the experiment filed under Mus musculus [1] is over 10000. Moreover, the concentration for half-maximal inhibition (IC50) in experiment [2] was over 100 µM; in [3], 0.01 µM.
